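Protocol summary: plate cells (96-well), add compound at 5 concentrations, incubate 48 h, interpolate endpoints linearly. GI50 = concentration required for 50% inhibition of growth.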 The source made the active and inactive calls. No stated cut-off is given here; in the data, active = GI50 up to about 1.1 µM and inactive = higher.
Legend:
Assay in all cases: inhibition of tumour cell growth, NCI panel, 48 h
[1] = test system: A498
[2] = test system: NCI-H460
[3] = test system: RXF 393
[4] = test system: BT-549
[5] = test system: MDA-N
[6] = test system: HL-60
[7] = test system: MCF7
[8] = test system: SF-539
[9] = test system: SF-268
[10] = test system: SNB-19
[11] = test system: HCC 2998
[12] = test system: Malme-3M
[13] = test system: HCT-15
[14] = test system: K562
[15] = test system: HCT-116
[16] = test system: OVCAR-5
[17] = test system: KM12
[18] = test system: OVCAR-8
[19] = test system: UACC-257
[20] = test system: PC-3
[21] = test system: NCI-H23
[22] = test system: NCI/ADR-RES
[23] = test system: U-251
[24] = test system: UO-31
[25] = test system: CAKI-1
[26] = test system: T47D
[27] = test system: SF-295
[28] = test system: SW-620
[29] = test system: NCI-H226
[30] = test system: SK-MEL-5
[31] = test system: MDA-MB-231
[32] = test system: RPMI-8226
[33] = test system: SK-MEL-28
[34] = test system: UACC-62
[35] = test system: A549
[36] = test system: 786-0
[37] = test system: TK-10
[38] = test system: DU-145
[39] = test system: ACHN
[40] = test system: IGROV-1
[41] = test system: SR
[42] = test system: MDA-MB-435
[43] = test system: HT-29
[44] = test system: SN12C
[45] = test system: SNB-75
[46] = test system: SK-MEL-2
[47] = test system: MOLT-4
[48] = test system: HOP-62
[49] = test system: COLO 205
[50] = test system: LOX IMVI
[51] = test system: OVCAR-3
[52] = test system: NCI-H522
[53] = test system: SK-OV-3
[54] = test system: OVCAR-4
[55] = test system: CCRF-CEM
[56] = test system: HOP-92
[57] = test system: M14
[58] = test system: EKVX

SMILES: Cc1ccc(Cc2n[nH]c(=O)n2-c2ccccc2)cc1
- GI50 [1]: 37.5 µM (inactive)
- GI50 [2]: > 100 µM (inactive)
- GI50 [3]: 20.2 µM (inactive)
- GI50 [4]: > 100 µM (inactive)
- GI50 [5]: > 100 µM (inactive)
- GI50 [6]: > 100 µM (inactive)
- GI50 [7]: > 100 µM (inactive)
- GI50 [8]: > 100 µM (inactive)
- GI50 [9]: > 100 µM (inactive)
- GI50 [10]: > 100 µM (inactive)
- GI50 [11]: > 100 µM (inactive)
- GI50 [12]: > 100 µM (inactive)
- GI50 [13]: > 100 µM
- GI50 [14]: > 100 µM (inactive)
- GI50 [15]: > 100 µM (inactive)
- GI50 [16]: > 100 µM (inactive)
- GI50 [17]: > 100 µM (inactive)
- GI50 [18]: > 100 µM (inactive)
- GI50 [19]: > 100 µM (inactive)
- GI50 [20]: > 100 µM (inactive)
- GI50 [21]: > 100 µM (inactive)
- GI50 [22]: > 100 µM (inactive)
- GI50 [23]: > 100 µM (inactive)
- GI50 [24]: 86.7 µM (inactive)
- GI50 [25]: > 100 µM (inactive)
- GI50 [26]: 0.652 µM (active)
- GI50 [27]: > 100 µM (inactive)
- GI50 [28]: > 100 µM (inactive)
- GI50 [29]: > 100 µM (inactive)
- GI50 [30]: > 100 µM (inactive)
- GI50 [31]: > 100 µM (inactive)
- GI50 [32]: 36.1 µM (inactive)
- GI50 [33]: > 100 µM (inactive)
- GI50 [34]: 55.3 µM (inactive)
- GI50 [35]: > 100 µM (inactive)
- GI50 [36]: > 100 µM (inactive)
- GI50 [37]: > 100 µM (inactive)
- GI50 [38]: > 100 µM (inactive)
- GI50 [39]: > 100 µM (inactive)
- GI50 [40]: > 100 µM (inactive)
- GI50 [41]: > 100 µM (inactive)
- GI50 [42]: > 100 µM (inactive)
- GI50 [43]: > 100 µM (inactive)
- GI50 [44]: > 100 µM (inactive)
- GI50 [45]: > 100 µM (inactive)
- GI50 [46]: 73.1 µM (inactive)
- GI50 [47]: > 100 µM (inactive)

SMILES: Cc1ccc2c3c1O[C@H]1c4[nH]c5ccccc5c4C[C@@]4(O)[C@@H](C2)N(CC2CC2)CC[C@]314
- GI50 [48]: 19.2 µM (inactive)
- GI50 [1]: 17.1 µM (inactive)
- GI50 [2]: 15.2 µM (inactive)
- GI50 [3]: 7.38 µM (inactive)
- GI50 [4]: 18.3 µM (inactive)
- GI50 [5]: 16.2 µM (inactive)
- GI50 [6]: 5.3 µM (inactive)
- GI50 [7]: 16.4 µM (inactive)
- GI50 [8]: 16.5 µM (inactive)
- GI50 [9]: 13.6 µM (inactive)
- GI50 [49]: 14.3 µM (inactive)
- GI50 [10]: 16.7 µM (inactive)
- GI50 [50]: 15.9 µM (inactive)
- GI50 [11]: 3.78 µM (inactive)
- GI50 [12]: 14.5 µM (inactive)
- GI50 [13]: 12.7 µM
- GI50 [14]: 15.5 µM (inactive)
- GI50 [51]: 14.4 µM (inactive)
- GI50 [52]: 15 µM (inactive)
- GI50 [15]: 14.5 µM (inactive)
- GI50 [16]: 18.7 µM (inactive)
- GI50 [53]: 16.4 µM (inactive)
- GI50 [17]: 17 µM (inactive)
- GI50 [18]: 15.3 µM (inactive)
- GI50 [19]: 16.7 µM (inactive)
- GI50 [20]: 12.1 µM (inactive)
- GI50 [21]: 19.7 µM (inactive)
- GI50 [22]: 19.1 µM (inactive)
- GI50 [23]: 14.4 µM (inactive)
- GI50 [24]: 13.4 µM (inactive)
- GI50 [25]: 16.6 µM (inactive)
- GI50 [26]: 17.6 µM (inactive)
- GI50 [27]: 17.4 µM (inactive)
- GI50 [28]: 10.9 µM (inactive)
- GI50 [29]: 14.9 µM (inactive)
- GI50 [30]: 14.1 µM (inactive)
- GI50 [31]: 19.4 µM (inactive)
- GI50 [32]: 11.2 µM (inactive)
- GI50 [33]: 12.6 µM (inactive)
- GI50 [34]: 16 µM (inactive)
- GI50 [35]: 14.7 µM (inactive)
- GI50 [36]: 13.8 µM (inactive)
- GI50 [37]: 17.3 µM (inactive)
- GI50 [38]: 16.1 µM (inactive)
- GI50 [39]: 16.6 µM (inactive)
- GI50 [54]: 0.166 µM (active)
- GI50 [55]: 2.78 µM (inactive)
- GI50 [40]: 17.4 µM (inactive)
- GI50 [56]: 13 µM (inactive)
- GI50 [41]: 8.89 µM (inactive)
- GI50 [42]: 13.7 µM (inactive)
- GI50 [43]: 4.42 µM (inactive)
- GI50 [44]: 15.3 µM (inactive)
- GI50 [57]: 16.8 µM (inactive)
- GI50 [46]: 17.1 µM (inactive)
- GI50 [58]: 17.4 µM (inactive)
- GI50 [47]: 12.2 µM (inactive)
